Measurements published in ChEMBL document CHEMBL1201862, “PubChem BioAssay data set” (2004).
“And” between values parts separate entries of the source, which are not always exact repeats. Equal entries are not always repeated. The source made the active and inactive calls.

Key:
[1] = target: Sphingosine 1-phosphate receptor 2 (Homo sapiens, UniProt O95136); test: Dose Response Cell Based Assay for Antagonists of the S1P2 Receptor. [Related pubchem assays: 856, 736 ]; type: functional
[2] = target: DNA (cytosine-5)-methyltransferase 1 (Homo sapiens, UniProt P26358); test: DNMT1 methyltransferase inhibitors, confirmation, biochemical, fluorescent molecular beacon (AID 602386); type: functional
[3] = target: Induced myeloid leukemia cell differentiation protein Mcl-1 (Homo sapiens, UniProt Q07820); type: functional
[4] = target: Bcl-2-like protein 10 (Homo sapiens, UniProt Q9HD36); test: displacers of TR3 peptide from Bcl-B, primary screen, selectivity assay for Bfl-1 inhibitor project, biochemical, fluorescence polarization, FITC-TR3 peptide (AID 748);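 also: fluorescence polarization from a fluorescein-labelled TR3 peptide binding purified Bcl-B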
[5] = target: Ephrin type-A receptor 4 (Mus musculus, UniProt Q03137); test: inhibitors of EphA4 binding to KYL peptide, primary screen, biochemical, colorimetric, mouse EphA4 (AID 689); type: functional
[6] = THP-1 cell cytotoxicity, dose response, cytotoxicity control for Vif-APOBEC3G degradation inhibitor project, THP-1 cells (AID 1117359); type: functional; conditions: Human immunodeficiency virus 1, THP-1
[7] = target: Diphosphomevalonate decarboxylase (Streptococcus pneumoniae serotype 2 (strain D39 / NCTC 7466), UniProt Q9FD53); test: S. pneumoniae DPM-DC inhibition retest, confirmation, biochemical, cuvette format, coupled NADH fluorescence (AID 1028); type: functional
[8] = microbe, parasite or virus in culture; type: functional; conditions: Mycobacterium tuberculosis
[9] = target: Protein-tyrosine kinase 2-beta (Homo sapiens, UniProt Q14289);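 also: potency of inhibitors of PYK2 kinase phosphorylation of poly-GT substrate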
[10] = target: Serine/threonine-protein phosphatase PP1-alpha catalytic subunit (Homo sapiens, UniProt P62136); test: PP1 phosphatase inhibitors, dose response, biochemical, fluorescence (AID 2394)
[11] = test system: Streptococcus; test: Group A Streptococcus viability loss, dose response, counter-screen for streptokinase expression inhibitor project, luminescence, BacTiterGlo (AID 1915); type: functional, organism-based;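 also: potency for reduction of bacterial viability or growth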
[12] = target: T1, Replicative DNA helicase DnaB (Mycobacterium tuberculosis, UniProt P9WMR3); test: DnaB intein splicing inhibitors, dose response, biochemical, cell-free fluorescence (AID 449749); type: functional
T1 sequence (P9WMR3 whole entry): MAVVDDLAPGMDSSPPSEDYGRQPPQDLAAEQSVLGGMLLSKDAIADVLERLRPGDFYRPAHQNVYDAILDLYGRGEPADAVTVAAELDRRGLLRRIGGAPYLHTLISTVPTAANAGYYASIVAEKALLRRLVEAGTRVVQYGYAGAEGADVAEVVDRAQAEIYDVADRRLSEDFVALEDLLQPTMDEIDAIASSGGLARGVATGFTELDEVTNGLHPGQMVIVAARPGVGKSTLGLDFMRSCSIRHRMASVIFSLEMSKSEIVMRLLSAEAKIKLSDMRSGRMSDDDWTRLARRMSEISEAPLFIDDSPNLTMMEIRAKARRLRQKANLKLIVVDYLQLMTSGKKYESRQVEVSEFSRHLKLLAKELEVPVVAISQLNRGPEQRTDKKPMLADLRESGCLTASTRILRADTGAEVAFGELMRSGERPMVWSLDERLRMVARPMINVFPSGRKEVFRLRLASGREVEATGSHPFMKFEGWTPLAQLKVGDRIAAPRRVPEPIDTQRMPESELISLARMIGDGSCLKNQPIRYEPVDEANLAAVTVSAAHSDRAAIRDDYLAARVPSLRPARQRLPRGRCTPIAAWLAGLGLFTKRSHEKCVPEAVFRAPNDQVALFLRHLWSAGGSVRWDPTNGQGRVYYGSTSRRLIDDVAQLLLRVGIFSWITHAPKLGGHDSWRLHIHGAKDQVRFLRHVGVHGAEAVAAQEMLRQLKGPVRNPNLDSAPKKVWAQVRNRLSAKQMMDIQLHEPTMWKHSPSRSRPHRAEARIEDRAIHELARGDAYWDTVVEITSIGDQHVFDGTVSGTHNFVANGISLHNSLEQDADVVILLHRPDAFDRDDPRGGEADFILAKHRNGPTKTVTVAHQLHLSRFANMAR

[13] = test system: Vero; test: Vero cell cytotoxicity, cytotoxicity control for flavivirus capping enzyme inhibitors (AID 588742); type: functional; conditions: Chlorocebus sabaeus
[14] = target: T2, Apoptotic protease-activating factor 1 (Homo sapiens, UniProt O14727); type: functional
T2 sequence (O14727 whole entry): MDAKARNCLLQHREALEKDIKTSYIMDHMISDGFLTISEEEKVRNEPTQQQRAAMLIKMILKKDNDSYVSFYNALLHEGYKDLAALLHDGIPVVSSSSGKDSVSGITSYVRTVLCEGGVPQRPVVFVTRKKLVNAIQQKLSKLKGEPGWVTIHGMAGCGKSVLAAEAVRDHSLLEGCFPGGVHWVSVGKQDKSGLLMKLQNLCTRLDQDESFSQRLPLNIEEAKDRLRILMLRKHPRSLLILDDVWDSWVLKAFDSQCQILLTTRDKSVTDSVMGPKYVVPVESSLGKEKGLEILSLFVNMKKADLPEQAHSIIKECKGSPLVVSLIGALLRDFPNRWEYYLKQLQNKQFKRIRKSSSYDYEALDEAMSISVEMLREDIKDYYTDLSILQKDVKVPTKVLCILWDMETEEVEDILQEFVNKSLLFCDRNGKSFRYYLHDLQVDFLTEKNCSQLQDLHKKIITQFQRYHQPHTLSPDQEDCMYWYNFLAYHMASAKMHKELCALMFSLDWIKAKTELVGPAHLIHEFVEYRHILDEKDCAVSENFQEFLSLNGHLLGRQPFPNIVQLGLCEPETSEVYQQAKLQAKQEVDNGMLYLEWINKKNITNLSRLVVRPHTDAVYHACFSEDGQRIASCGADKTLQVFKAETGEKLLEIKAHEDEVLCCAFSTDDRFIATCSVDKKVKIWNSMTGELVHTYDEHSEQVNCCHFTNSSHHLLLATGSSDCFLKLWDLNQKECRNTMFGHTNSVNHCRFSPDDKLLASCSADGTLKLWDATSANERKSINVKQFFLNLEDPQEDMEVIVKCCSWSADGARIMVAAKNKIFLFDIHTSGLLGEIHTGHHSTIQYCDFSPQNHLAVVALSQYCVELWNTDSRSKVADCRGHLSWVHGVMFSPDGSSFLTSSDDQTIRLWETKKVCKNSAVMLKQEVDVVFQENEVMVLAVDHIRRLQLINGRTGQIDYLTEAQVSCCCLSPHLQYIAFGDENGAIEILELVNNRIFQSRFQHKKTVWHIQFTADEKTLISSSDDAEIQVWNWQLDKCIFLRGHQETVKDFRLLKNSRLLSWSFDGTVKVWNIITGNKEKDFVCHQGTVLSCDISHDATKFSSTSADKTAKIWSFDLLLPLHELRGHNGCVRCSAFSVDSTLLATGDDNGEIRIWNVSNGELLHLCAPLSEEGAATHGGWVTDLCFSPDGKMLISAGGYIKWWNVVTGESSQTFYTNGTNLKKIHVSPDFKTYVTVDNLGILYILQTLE

[15] = test system: Streptococcus sp. 'group A'; test: growth inhibition of control SK(-) GAS strain, dose response, counter-screen for streptokinase expression inhibitor project, luminescence, kanamycin, BacTiterGlo, confirmation (AID 1900); type: functional, organism-based
[16] = target: Serine/threonine-protein phosphatase (Homo sapiens, UniProt Q9BPW0); test: PP5 phosphatase inhibitors, dose response, biochemical, fluorescence (AID 2395)
[17] = cytotoxicity toward NIH3T3 fibroblasts, dose response, counter-screen, cell-based, ATP luminescence, mouse fibroblasts (AID 2010); type: functional;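 also: cells exposed to compound for about 90 hours before reading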
[18] = target: Mitochondrial peptide methionine sulfoxide reductase (Bos taurus, UniProt P54149); type: functional;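 also: absorbance read-out, biochemical high-throughput dose-response screen for MsrA inhibitors, confirmatory; recombinant bovine MsrA coupled to E. coli TrxB with NADPH and selenocystamine; potency is for inhibitors of MsrA activity on DMSO substrate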
[19] = test system: INS1; test: beta cell apoptosis inhibitors, cytokine rescue, dose response, luminescence, retest (AID 449756); type: functional, cell-based; conditions: Rattus norvegicus;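 also: cell death triggered by IL-1 beta plus TNF-alpha plus IFN-gamma mixture; protective hits raise ATP signal compared with cytokine alone wells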
[20] = cytotoxicity in HEK-293T cells, dose response, cytotoxicity control for TCR NF-kB inhibitor project, luminescence, T-cell screen hits (AID 489026); type: functional, cell-based;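 also: cells exposed to compound about 14 hours before the viability readout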
[21] = target: Heat shock protein HSP 90-alpha (Homo sapiens, UniProt P07900); test: Luminescence-based dose response biochemical high throughput screening assay for inhibitors of the Heat Shock Protein 90 (HSP90). [Related pubchem assays: 1831 (Summary AID.), 1846 (Confirmation screen.), 1789 (Primary screen.)]
[22] = inhibitors of intracellular T. cruzi replication, confirmation, NIH3T3 host cells, beta-gal luminescence (AID 2044); type: functional, cell-based;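 also: intracellular parasites grown in NIH/3T3 mouse fibroblasts as host cells; luminescent beta-galactosidase reporter signal from transgenic T. cruzi replicating inside host cells; inhibitors lower the luminescence signal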
[23] = target: T3, Protein RecA (Mycobacterium tuberculosis, UniProt P9WHJ3); test: Fluorescence Cell-Free Homogeneous Dose Retest to Identify Inhibitors of RecA-Intein Splicing Activity. [Related pubchem assays (depositor defined):AID2097, AID2223, AID489010, AID492950]; type: functional
T3 sequence (P9WHJ3 whole entry): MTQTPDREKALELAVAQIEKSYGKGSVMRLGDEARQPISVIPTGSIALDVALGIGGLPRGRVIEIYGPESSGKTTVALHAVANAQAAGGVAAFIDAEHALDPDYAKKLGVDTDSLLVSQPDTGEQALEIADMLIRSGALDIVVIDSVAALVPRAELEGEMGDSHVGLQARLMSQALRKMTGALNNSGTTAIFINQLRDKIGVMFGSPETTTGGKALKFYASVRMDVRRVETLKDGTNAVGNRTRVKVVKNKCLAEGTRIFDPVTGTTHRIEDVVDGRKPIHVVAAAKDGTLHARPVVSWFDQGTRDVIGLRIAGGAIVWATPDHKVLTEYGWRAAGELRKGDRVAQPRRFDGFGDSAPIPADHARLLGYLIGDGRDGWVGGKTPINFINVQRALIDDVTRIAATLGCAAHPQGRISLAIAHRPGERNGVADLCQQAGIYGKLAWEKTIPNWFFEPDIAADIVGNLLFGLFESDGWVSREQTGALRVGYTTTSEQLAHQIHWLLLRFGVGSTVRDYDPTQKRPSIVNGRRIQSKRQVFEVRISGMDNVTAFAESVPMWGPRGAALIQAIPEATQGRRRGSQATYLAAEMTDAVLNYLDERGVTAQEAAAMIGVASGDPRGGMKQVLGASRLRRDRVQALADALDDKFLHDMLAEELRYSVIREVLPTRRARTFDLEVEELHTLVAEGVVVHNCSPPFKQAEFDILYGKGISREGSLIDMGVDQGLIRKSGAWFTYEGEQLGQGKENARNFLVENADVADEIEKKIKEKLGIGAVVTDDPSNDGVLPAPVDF

[24] = target: Genome polyprotein (dengue virus type 2, UniProt P29990); test: Dengue-2 NS5 methyltransferase inhibitors, primary screen, biochemical, confirmation dose response (AID 588689); type: functional
[25] = target: Glyceraldehyde-3-phosphate dehydrogenase (Homo sapiens, UniProt P04406)
[26] = target: T4, Bcl-2-related protein A1 (Mus musculus, UniProt Q07440); test: Bfl-1 binding inhibitors, SAR follow-up, biochemical, fluorescence polarization (AID 1070)
T4 sequence (Q07440 whole entry): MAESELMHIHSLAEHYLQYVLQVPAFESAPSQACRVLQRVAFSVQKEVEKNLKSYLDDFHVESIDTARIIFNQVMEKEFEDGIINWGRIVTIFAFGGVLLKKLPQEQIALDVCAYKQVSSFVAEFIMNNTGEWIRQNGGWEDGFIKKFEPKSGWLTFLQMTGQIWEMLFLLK

[27] = target: T4, Bcl-2-related protein A1; test: Bfl-1 inhibitors, primary screen, biochemical, fluorescence polarization, FITC-Bid, mouse (AID 432)
[28] = target: T4, Bcl-2-related protein A1; test: Bfl-1 inhibitors blocking BH3 peptide binding, confirmation, biochemical, TR-FRET, mouse Bfl-1 (AID 621);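 also: TR-FRET binding of GST-Bfl-1 to FITC-labelled Bid peptide via terbium antibody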
[29] = target: E3 ubiquitin-protein ligase Mdm2 (Homo sapiens, UniProt Q00987); test: enhancers of MDM2-luciferase reporter signal, concentration-effect titration, project on inhibitors of MDM2 ubiquitin ligase, cellular assay, luminescent readout, 384-well plate format (AID 1394); type: functional;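 also: MDM2 E3 inhibitors raise luminescence so EC50 is for signal enhancement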
[30] = test system: Vero; test: cytotoxicity of synthesized analogs in Vero cells, SAR follow-up, cytotoxicity control for West Nile virus antiviral project, cell-based, set II (AID 2402); type: functional; conditions: Chlorocebus sabaeus
[31] = target: NADPH oxidase 1 (Homo sapiens, UniProt Q9Y5S8); test: Late-stage luminescence-based cell-based dose response assay to identify inhibitors of NADPH oxidase 1 (NOX1): Synthesized analogs.; type: functional

Chain of Mitochondrial peptide methionine sulfoxide reductase (P54149 whole entry): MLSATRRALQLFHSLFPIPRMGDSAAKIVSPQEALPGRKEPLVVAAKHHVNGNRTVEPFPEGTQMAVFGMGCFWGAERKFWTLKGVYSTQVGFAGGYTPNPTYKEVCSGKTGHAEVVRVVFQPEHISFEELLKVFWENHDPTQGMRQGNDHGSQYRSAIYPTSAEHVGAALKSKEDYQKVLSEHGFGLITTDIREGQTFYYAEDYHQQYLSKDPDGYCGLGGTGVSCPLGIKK
Chain of E3 ubiquitin-protein ligase Mdm2 (Q00987 whole entry): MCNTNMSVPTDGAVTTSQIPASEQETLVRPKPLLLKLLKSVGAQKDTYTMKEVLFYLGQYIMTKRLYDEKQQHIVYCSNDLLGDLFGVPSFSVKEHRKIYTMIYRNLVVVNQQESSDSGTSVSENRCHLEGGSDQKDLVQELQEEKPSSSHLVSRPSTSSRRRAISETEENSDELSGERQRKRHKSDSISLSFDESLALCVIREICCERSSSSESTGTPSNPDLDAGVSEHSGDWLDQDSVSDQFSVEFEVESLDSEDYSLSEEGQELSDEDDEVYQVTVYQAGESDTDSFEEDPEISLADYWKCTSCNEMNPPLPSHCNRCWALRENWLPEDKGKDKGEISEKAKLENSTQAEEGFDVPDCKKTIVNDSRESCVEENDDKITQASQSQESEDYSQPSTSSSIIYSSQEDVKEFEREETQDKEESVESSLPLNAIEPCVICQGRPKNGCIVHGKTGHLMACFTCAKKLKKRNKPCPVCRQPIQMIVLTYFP
Chain of Serine/threonine-protein phosphatase PP1-alpha catalytic subunit (P62136 whole entry): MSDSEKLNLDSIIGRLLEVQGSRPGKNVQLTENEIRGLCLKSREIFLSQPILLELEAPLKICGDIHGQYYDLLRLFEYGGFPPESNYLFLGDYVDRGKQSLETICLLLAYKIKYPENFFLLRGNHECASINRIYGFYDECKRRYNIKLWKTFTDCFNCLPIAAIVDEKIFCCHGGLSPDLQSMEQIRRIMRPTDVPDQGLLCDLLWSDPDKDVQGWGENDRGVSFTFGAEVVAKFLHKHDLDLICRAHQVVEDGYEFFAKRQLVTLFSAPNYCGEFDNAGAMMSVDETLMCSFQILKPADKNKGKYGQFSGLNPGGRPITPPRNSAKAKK
Chain of Ephrin type-A receptor 4 (Q03137 whole entry): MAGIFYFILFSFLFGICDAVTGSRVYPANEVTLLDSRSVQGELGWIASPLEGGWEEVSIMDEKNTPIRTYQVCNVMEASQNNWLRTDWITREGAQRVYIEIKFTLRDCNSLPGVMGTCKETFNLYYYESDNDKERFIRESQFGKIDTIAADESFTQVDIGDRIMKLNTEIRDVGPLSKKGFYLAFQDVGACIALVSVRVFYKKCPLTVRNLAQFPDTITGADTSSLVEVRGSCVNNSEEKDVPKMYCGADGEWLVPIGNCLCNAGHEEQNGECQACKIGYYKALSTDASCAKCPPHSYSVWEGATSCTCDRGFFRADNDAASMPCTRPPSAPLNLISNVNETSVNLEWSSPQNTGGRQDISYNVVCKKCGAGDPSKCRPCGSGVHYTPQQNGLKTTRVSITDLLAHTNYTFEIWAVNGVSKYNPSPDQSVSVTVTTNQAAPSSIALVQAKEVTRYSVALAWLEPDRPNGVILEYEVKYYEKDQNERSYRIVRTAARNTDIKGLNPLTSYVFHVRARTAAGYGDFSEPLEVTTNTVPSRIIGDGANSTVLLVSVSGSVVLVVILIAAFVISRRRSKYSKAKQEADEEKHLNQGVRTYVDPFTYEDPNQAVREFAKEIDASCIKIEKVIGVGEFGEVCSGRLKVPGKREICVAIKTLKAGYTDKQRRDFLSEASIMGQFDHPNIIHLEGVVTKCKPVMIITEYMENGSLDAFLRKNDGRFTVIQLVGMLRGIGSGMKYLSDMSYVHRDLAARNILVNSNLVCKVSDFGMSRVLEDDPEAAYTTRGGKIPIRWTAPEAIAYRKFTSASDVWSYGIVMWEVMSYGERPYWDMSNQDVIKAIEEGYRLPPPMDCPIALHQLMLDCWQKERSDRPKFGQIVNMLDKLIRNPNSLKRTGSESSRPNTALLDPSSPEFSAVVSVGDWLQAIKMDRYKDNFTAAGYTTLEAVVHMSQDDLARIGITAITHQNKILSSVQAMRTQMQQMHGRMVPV
Chain of Serine/threonine-protein phosphatase (Q9BPW0 whole entry): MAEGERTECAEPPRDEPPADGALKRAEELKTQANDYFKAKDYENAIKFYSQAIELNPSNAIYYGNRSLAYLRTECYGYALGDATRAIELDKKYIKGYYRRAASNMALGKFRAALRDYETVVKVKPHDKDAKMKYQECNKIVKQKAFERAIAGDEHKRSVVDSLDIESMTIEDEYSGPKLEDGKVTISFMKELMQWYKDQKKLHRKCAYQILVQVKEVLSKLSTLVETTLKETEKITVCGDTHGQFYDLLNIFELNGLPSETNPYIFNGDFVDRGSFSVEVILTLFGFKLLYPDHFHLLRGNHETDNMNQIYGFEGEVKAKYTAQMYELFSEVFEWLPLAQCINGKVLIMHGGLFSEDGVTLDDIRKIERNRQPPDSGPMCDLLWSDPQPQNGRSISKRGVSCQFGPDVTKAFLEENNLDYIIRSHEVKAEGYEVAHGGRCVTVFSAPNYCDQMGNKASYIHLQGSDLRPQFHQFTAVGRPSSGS
Chain of Diphosphomevalonate decarboxylase (Q9FD53 whole entry): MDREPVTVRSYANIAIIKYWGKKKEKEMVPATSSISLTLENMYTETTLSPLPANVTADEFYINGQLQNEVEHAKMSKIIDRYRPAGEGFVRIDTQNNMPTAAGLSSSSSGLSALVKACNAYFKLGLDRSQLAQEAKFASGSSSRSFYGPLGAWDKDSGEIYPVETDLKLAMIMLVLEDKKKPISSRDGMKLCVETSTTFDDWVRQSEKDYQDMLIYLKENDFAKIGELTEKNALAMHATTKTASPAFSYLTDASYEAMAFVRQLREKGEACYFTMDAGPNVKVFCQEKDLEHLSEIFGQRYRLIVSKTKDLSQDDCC
Chain of Protein-tyrosine kinase 2-beta (Q14289 whole entry): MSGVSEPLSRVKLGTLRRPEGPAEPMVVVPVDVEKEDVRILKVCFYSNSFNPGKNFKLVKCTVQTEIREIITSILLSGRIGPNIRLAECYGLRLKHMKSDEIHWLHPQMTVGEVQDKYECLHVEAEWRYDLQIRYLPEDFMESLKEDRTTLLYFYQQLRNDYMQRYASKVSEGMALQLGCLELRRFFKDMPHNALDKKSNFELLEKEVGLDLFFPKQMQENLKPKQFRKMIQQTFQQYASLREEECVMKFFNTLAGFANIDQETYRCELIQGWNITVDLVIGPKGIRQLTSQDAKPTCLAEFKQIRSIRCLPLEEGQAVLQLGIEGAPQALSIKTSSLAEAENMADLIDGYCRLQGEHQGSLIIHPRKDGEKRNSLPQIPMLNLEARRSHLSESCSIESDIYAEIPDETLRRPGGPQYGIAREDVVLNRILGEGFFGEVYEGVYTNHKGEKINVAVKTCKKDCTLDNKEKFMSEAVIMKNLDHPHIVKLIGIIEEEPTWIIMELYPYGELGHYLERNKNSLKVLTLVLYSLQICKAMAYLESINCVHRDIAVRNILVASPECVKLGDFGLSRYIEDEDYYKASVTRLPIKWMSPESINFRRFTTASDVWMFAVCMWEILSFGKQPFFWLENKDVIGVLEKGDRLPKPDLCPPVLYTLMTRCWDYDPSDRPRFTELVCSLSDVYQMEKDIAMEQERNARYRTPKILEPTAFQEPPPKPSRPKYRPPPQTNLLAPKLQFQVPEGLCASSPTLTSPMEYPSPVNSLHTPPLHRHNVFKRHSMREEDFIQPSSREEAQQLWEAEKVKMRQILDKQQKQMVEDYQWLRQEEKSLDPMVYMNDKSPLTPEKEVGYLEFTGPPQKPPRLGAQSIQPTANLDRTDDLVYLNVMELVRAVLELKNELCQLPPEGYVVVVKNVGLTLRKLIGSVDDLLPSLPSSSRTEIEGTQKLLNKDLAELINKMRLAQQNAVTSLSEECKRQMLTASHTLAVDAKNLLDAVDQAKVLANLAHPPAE
Chain of Bcl-2-like protein 10 (Q9HD36 whole entry): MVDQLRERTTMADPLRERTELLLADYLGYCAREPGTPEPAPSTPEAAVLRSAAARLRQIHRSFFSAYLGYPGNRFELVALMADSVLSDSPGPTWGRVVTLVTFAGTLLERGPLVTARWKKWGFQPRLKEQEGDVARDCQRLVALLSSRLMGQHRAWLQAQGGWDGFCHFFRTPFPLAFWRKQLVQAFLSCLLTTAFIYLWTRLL
Chain of Sphingosine 1-phosphate receptor 2 (O95136 whole entry): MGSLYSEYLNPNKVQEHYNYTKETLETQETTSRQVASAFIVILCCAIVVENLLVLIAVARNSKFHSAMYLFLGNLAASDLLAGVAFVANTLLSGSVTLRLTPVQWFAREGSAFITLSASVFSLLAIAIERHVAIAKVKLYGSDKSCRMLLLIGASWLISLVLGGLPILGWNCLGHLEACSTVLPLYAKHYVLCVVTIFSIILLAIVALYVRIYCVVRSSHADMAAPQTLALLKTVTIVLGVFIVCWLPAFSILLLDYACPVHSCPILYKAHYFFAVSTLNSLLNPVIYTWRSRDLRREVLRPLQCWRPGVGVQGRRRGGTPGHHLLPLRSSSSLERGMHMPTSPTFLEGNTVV
Chain of Induced myeloid leukemia cell differentiation protein Mcl-1 (Q07820 whole entry): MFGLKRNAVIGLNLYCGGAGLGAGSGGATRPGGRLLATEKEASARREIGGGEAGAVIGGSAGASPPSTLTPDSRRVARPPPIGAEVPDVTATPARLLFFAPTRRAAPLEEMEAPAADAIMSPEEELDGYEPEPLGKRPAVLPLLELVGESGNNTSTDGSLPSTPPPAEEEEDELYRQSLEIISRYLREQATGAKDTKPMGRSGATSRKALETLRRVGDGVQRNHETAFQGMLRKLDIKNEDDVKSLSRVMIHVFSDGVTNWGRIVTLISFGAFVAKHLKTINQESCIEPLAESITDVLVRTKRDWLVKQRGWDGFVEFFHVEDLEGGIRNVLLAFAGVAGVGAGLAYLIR

CN(C)/C=N/C(=O)c1sc2cc(C(F)(F)F)cnc2c1-c1ccccc1
IC50 [1]: > 30 µM (not active)

O=C1CCCC2=C1C(c1ccco1)Nc1ccc3ccccc3c12 (stereo not drawn)
IC50 [2]: 6.62 µM (active)
IC50 [3]: 3.2 µM (active)
IC50 [4]: 7.53 µM (active)
IC50 [5]: 11.8 µM (active)
CC50 [6]: > 40 µM (active)

O=C(c1cccc(-n2sc3ccccc3c2=O)c1)N1CCOCC1
IC50 [7]: 23.1 µM (active)

Cc1ccccc1NC1=C/C(=N\S(=O)(=O)c2cccs2)c2ccccc2C1=O
CC50 [8]: 3.13 µM (active)
IC50 [9]: > 69.5 µM (not active)
IC50 [10]: > 22.3 µM (not active)
EC50 [11]: 4.55 µM (active)
AC50 [12]: > 120 µM (inactive)
CC50 [13]: 4.33 µM (active)
IC50 [14]: 0.335 µM (active)
EC50 [15]: 0.701 µM (active)
IC50 [16]: 1.83 µM (active)
EC50 [17]: 1.95 µM (active)
IC50 [18]: 692 µM (inactive)
AC50 [19]: 0.413 µM (active)
IC50 [20]: 0.44 µM (active)
IC50 [21]: 0.438 µM (active)
EC50 [22]: 1.04 µM (active)
EC50 [23]: 0.654 µM (active)

CN1CCN(C2=C(Cl)C(=O)N(c3ccc(Cl)c(Cl)c3)C2=O)CC1
IC50 [24]: 16.9 µM (active)
IC50 [25]: > 100 µM (not active)
AC50 [12]: 3.75 µM (active)
IC50 [26]: 0.362 µM (active)
IC50 [27]: 0.65 µM (active)
EC50 [23]: 2.22 µM (active)
IC50 [28]: 580 nM (active) and 500 nM (active)

CCN(CC)C(=O)CN1CCN(c2ncccn2)CC1
EC50 [29]: 16.1 µM (not active)

O=C(CSc1nc2ccc(F)cc2c(=O)n1-c1ccccc1)Nc1ccc2c(c1)CCC2
CC50 [30]: > 200 µM (active)

O=C(/C=C/c1ccccc1)N1c2ccccc2Sc2ccc(C(F)(F)F)cc21
IC50 [31]: > 50 µM (not active)
